In PMC6344987 (BMC Complementary and Alternative Medicine, 2019):

Key:
in vivo = details: rat, po, 0.5 mg/kg
Description: On the fifth day, blood samples were collected from the 18 h fasted rats at different time intervals namely; at zero time, 0.5, 1, 2, 3, 4, 6, 8, 12, 24, 48 and 72 h from all groups and drawn into EDTA micro tubes. The micro tubes were centrifuged at 7000 RPM for 10 min. Plasma was separated, transferred directly into labeled Eppendorf tubes and stored at − 20 °C until requested for HPLC analysis.
Reversed-phase high-performance liquid chromatography (HPLC) analysis was used to separate samples using Finnigan surveyor system (Thermo Electron Corporation, San Jose, California, USA) on a hypersil™ BDS C-18 Column (150 mm × 4.6 mm, 5 μm) (Thermo Electron Corporation, San Jose, California, USA) and quantified using ultraviolet detection at 310 nm (UV-VIS Plus Detector). The mobile phase was a mixture of 60% acetonitrile HPLC grade and 40% water containing 1 ml triethylamine/l and phosphoric acid (pH 3.0) with a flow rate of 1.0 ml/min (LC pump plus) using 20 μl injection volume (Autosampler Plus). Metronidazole benzoate was used as an internal standard. ChromQuest 4.2.34 chromatography data system was implemented for data acquisition and handling. […] Consequently, different concentrations of working solutions were prepared for plasma spiking by mixing 25 μl of working solutions in 975 μl of plasma (Fig. 1, Table 1). […] The supernatant was then analyzed using an in house validated HPLC method at the Faculty of Pharmacy and Medical Sciences, University of Petra, Amman, Jordan (MSc thesis, Farah Al-Mamoori, 2016, University of Petra).
The calculated pharmacokinetic parameters presented in the current study were maximum plasma concentration (Cmax), area under the curve (AUC), area under the first moment curve (AUMC), mean residence time (MRT), half-life (t0.5), clearance (CL), volume of distribution (Vz), time at which Cmax was observed (Tmax) and elimination rate constant (Kel).

Sprague Dawley rats = assay: In vivo pharmacodynamic study: prothrombin time (PT) and INR in rat plasma after five days of oral treatment; details: oral daily for five days, WF 0.5 mg/kg, PPE 100 mg/kg, EA 40 mg/kg, GvL 250 mg/kg, QUE 12.75 mg/kg, mean ± SD (n = 8); for INR: calculated from PT; for PT: plasma on fifth day
Description: Adult Sprague Dawley laboratory rats were supplied by the Animal Facility of the University of […], Jordan). […] Rats were fasted overnight with free access to water. All experiments involving animals were conducted according to the institutional guidelines for the use of laboratory animals, which follows the guidelines of the Federation of European Laboratory Animal Science Associations (FELASA). The used animals were euthanized with cervical dislocation at the end of each experiment. The study protocol was revised and approved by the Committee of Scientific Research of the University of Petra (Approval number: 4-2016/2017, Date: 22/06/2017). The rats were weighed and randomized into ten groups (n = 8) and acclimatized for ten days before the experiment. Oral stainless steel gavage needle (Harvard Apparatus, Kent, UK) was used for oral administration of the treatments. Groups were treated daily for five days as following; group 1 received oral 0.5% CMC solution and served as a negative control. […] Group 3 received 100 mg/kg pomegranate peel extract suspension. […] Group 7 received 250 mg/kg guava leaves extract suspension. […] Plasma was separated, transferred directly into labeled Eppendorf tubes for PT and INR analysis. Reconstituted thromboplastin was added to 100 μl of each plasma sample in pre-warmed cuvette at 37 °C. […] INR was calculated from the detected PT according to the manufacturer's instructions.

CYP3A4 = assay: P450-Glo CYP3A4 (Luciferin-IPA) activity in primary isolated rat hepatocytes; format: in vitro ADME; details: n = 6; for CYP3A4 activity relative to untreated isolated hepatocytes: substance alone, ketoconazole 1, warfarin 3, pomegranate peel extract 120, ellagic acid 48, guava leaves extract 294, quercetin 15 μg/ml; for CYP3A4 activity relative to untreated isolated hepatocytes, in combination with warfarin: combined with warfarin 3 μg/ml, pomegranate peel extract 120, ellagic acid 48, guava leaves extract 294, quercetin 15 μg/ml
Description: (§1) The liver of anaesthetized rat with inhaled isoflurane were perfused with collagenase enzyme as described by. Liver cells were dispersed gently in a sterile petri dish, and prepared for hepatocyte culture as described elsewhere. Cell were plated at a final concentration of 50,000 cell/100 μl and seeded in 96 well plates (100 μl). Cells were left to recover and grow overnight prior to the day of experiment.
Doses of chemicals selected for in vitro testing on primary cultured hepatocyte mitochondrial activity were estimated after literature review and preliminary work in order to obtain the IC50 values of tested compounds (data not shown). […] Directly after the addition of treatments, 25 μl of the lumenogenic substrate (Luciferin-H, Luciferin-ME or Luciferin-IPA) was added to each well. The plates were incubated at 37 °C for appropriate time according to manufacture protocol (Promega, USA). Later, 25 μl from culture media from each well was transferred into 96-well opaque white luminometer plate and equal amount of Luciferin detection reagent was added to each well to initiate the luminescent reaction. The reaction was allowed for 20 min at room temperature away from light. Finally, luminescence was read using GloMax®-Multi Detection System (Promega, USA).

CYP2C9 = assay: P450-Glo CYP2C9 (Luciferin-H) activity in primary isolated rat hepatocytes; format: in vitro ADME; details: n = 6; for CYP2C9 activity relative to untreated isolated hepatocytes, in combination with warfarin: combined with warfarin 3 μg/ml, pomegranate peel extract 120, ellagic acid 48, guava leaves extract 294, quercetin 15 μg/ml; for CYP2C9 activity relative to untreated isolated hepatocytes: substance alone, sulfamethoxazole 130, warfarin 3, pomegranate peel extract 120, ellagic acid 48, guava leaves extract 294, quercetin 15 μg/ml
Description: as §1
(§2) Directly after the addition of treatments, 25 μl of the lumenogenic substrate (Luciferin-H, Luciferin-ME or Luciferin-IPA) was added to each well. The plates were incubated at 37 °C for appropriate time according to manufacture protocol (Promega, USA). Later, 25 μl from culture media from each well was transferred into 96-well opaque white luminometer plate and equal amount of Luciferin detection reagent was added to each well to initiate the luminescent reaction. The reaction was allowed for 20 min at room temperature away from light. Finally, luminescence was read using GloMax®-Multi Detection System (Promega, USA).

CYP2C8 = assay: P450-Glo CYP2C8 (Luciferin-ME) activity in primary isolated rat hepatocytes; format: in vitro ADME; details: n = 6; for CYP2C8 activity relative to untreated isolated hepatocytes, in combination with warfarin: combined with warfarin 3 μg/ml, pomegranate peel extract 120, ellagic acid 48, guava leaves extract 294, quercetin 15 μg/ml
Description: as §1, §2

Row | AUC (in vivo; Sprague-Dawley) | Cmax (in vivo; Sprague-Dawley) | MRT (in vivo; Sprague-Dawley) | Tmax (in vivo; Sprague-Dawley) | Vd/F (in vivo; Sprague-Dawley) | CL/F (in vivo) | SMILES | INR (Sprague Dawley rats) | PT (Sprague Dawley rats) | CYP3A4 activity relative to untreated isolated hepatocytes (CYP3A4) | CYP2C9 activity relative to untreated isolated hepatocytes, in combination with warfarin (CYP2C9) | CYP2C9 activity relative to untreated isolated hepatocytes (CYP2C9) | CYP2C8 activity relative to untreated isolated hepatocytes, in combination with warfarin (CYP2C8) | CYP3A4 activity relative to untreated isolated hepatocytes, in combination with warfarin (CYP3A4) | CYP2C8 activity relative to untreated isolated hepatocytes (CYP2C8; substance alone, trimethoprim 30, warfarin 3, pomegranate peel extract 120, ellagic acid 48, guava leaves extract 294, quercetin 15 μg/ml)
1 | 107 µg·h/mL | 3.67 ± 0.663 µg/mL | 25 ± 5 h | 6 ± 8 h | 0.035 ± 0.015 L | 1.45 ± 0.5 mL/h | CC(=O)CC(c1ccccc1)c1c(O)c2ccccc2oc1=O (centres unmarked) [WF, Warfarin] | 19 ± 1 | 191 ± 12 s |  |  |  |  |  | 
2 |  |  |  |  |  |  | CC(=O)N1CCN(c2ccc(OCC3COC(Cn4ccnc4)(c4ccc(Cl)cc4Cl)O3)cc2)CC1 (centres unmarked) [ketoconazole, reference compound] |  |  | significantly reduced |  |  |  |  | 
3 |  |  |  |  |  |  | O=c1oc2c(O)c(O)cc3c(=O)oc4c(O)c(O)cc1c4c23 [EA, ellagic acid] | 1.43 ± 0.10 | 23 ± 1.31 s |  | significantly inhibited | significant inhibition | significantly inhibited | significantly inhibited | 
4 |  |  |  |  |  |  | O=c1c(O)c(-c2ccc(O)c(O)c2)oc2cc(O)cc(O)c12 [QUE, quercetin hydrate] | 1.39 ± 0.09 | 22.5 ± 1.20 s | inhibited | inhibited | inhibited | inhibited | inhibited | inhibited
